Test results as given in patent US20250255832A1, “SKIN ADHESIVE PATCH FOR NEGATIVE PRESSURE STIMULATION AND MANUFACTURING METHOD THEREFOR” (Research & Business Foundation Sungkyunkwan University, priority 2022, published 2025).
“Also recorded” adds a separate entry of the source. Read-outs that look alike come from different tables or passages of the source.

Tests used:
[1] = delivery depth by the d-SCC for various drugs with different molecular weights on pig skin; format: in vitro ADME; conditions: applied in combination with d-SCC
Source text: FIG. 11 includes: (a) a graph showing the improvement in delivery depth by the d-SCC for various drugs with different molecular weights on pig skin; and (b) images showing the delivered states of the respective drugs under each condition.

[2] = tested on: atopic dermatitis-induced mice; experiment: transepidermal water loss in atopic dermatitis-induced mice, drugs combined with d-SCC; format: in vivo; conditions: applied in combination with the d-SCC patch
Source text: FIG. 13 includes: (a) images showing the skin recovery progression in atopic dermatitis-induced mice following the combined application of various drugs and the d-SCC; and (b) a graph illustrating transepidermal water loss over time resulting from the combined application of the respective drugs and the d-SCC.

[3] = artificial skin, vs without a patch

Row | Molecule | delivery depth of drug applied together with d-SCC [1] | other results
1 | Cc1occc(=O)c1O [Maltol] | greatest delivery depth among the tested conditions; also recorded: excellent delivery depth | transepidermal water loss (TEWL) of the skin [2]: recovered to a level closest to that of normal (control) skin
2 | Hyaluronic acid | excellent delivery depth | 
3 | CC1=C(/C=C/C(C)=C/C=C/C(C)=C/CO)C(C)(C)CCC1 [Retinol] | excellent delivery depth | 
4 | CCN(CC)c1ccc2c(-c3ccccc3C(=O)O)c3ccc(=[N+](CC)CC)cc-3oc2c1.[Cl-] [rhodamine B] |  | delivery depth improved compared to w/o patch ([3]; 30 minutes after removal of the patch): up to 95%; delivery depth improved compared to w/o patch ([3]; after 30 minutes of patch application): up to 138%
5 | Ramoplanin | excellent delivery depth | 
6 | Ovalbumin (protein, UniProt P01012 2-386, looked up, hydrophilic compound) Ovalbumin: GSIGAASMEFCFDVFKELKVHHANENIFYCPIAIMSALAMVYLGAKDSTRTQINKVVRFDKLPGFGDSIEAQCGTSVNVHSSLRDILNQITKPNDVYSFSLASRLYAEERYPILPEYLQCVKELYRGGLEPINFQTAADQARELINSWVESQTNGIIRNVLQPSSVDSQTAMVLVNAIVFKGLWEKAFKDEDTQAMPFRVTEQESKPVQMMYQIGLFRVASMASEKMKILELPFASGTMSMLVLLPDEVSGLEQLESIINFEKLTEWTSSNVMEERKIKVYLPRMKMEEKYNLTSVLMAMGITDVFSSSANLSGISSAESLKISQAVHAAHAEINEAGREVVGSAEAGVDAASVSEEFRADHPFLFCIKHIATNAVLFFGRCVSP | excellent delivery depth | 
